How the values were obtained:
Assay in all cases: Cell growth assay
Format in all cases: cell-based
[1] = tested on: MC/CAR; conditions: Homo sapiens, 72 h, RAF WT, RAS WT, 3-day, read-out: gIC50
Method in brief: (§1)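 We assessed proliferation over 72 h using CellTiter-Glo, reading at the start and end. IC50 for growth inhibition (gIC50) was then determined.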

[2] = tested on: OV-90; conditions: Homo sapiens, 72 h; OV-90, BRAF(del486-490), RAS WT, 3-day; read-out: gIC50
Method in brief: as §1

[3] = tested on: NCI-H520; conditions: Homo sapiens, 72 h; NCI-H520, RAF WT, RAS WT, 3-day; read-out: gIC50
Method in brief: as §1

[4] = tested on: SK-N-AS; conditions: Homo sapiens, 72 h, RAF WT, NRAS(Q61K), 3-day, read-out: gIC50
Method in brief: as §1

[5] = tested on: RPMI-8226; conditions: Homo sapiens, 72 h; RPMI-8226, RAF WT, RAS WT, 3-day; read-out: gIC50
Method in brief: as §1

[6] = tested on: SW579; conditions: Homo sapiens, 72 h; SW579, RAF WT, RAS WT, 3-day; read-out: gIC50
Method in brief: as §1

[7] = tested on: CHL-1; conditions: Homo sapiens, 72 h; CHL-1, RAF WT, RAS WT, 3-day; read-out: gIC50
Method in brief: as §1

[8] = tested on: C-4 I; conditions: Homo sapiens, 72 h, RAF WT, RAS WT, 3-day, read-out: gIC50
Method in brief: as §1

[9] = tested on: Hs746.T; conditions: Homo sapiens, Hs746T, 72 h, RAF WT, RAS WT, 3-day, read-out: gIC50
Method in brief: as §1

[10] = tested on: HT-1080; conditions: Homo sapiens, 72 h; HT-1080, RAF WT, RAS WT, 3-day; read-out: gIC50
Method in brief: as §1

[11] = tested on: NCI-H187; conditions: Homo sapiens, 72 h; NCI-H187, RAF WT, RAS WT, 3-day; read-out: gIC50
Method in brief: as §1

[12] = tested on: SNU-5; conditions: Homo sapiens, 72 h; SNU-5, RAF WT, RAS WT, 3-day; read-out: gIC50
Method in brief: as §1

[13] = tested on: SK-BR-3; conditions: Homo sapiens, 72 h; SK-BR-3, RAF WT, RAS WT, 3-day; read-out: gIC50
Method in brief: as §1

[14] = tested on: TK-10; conditions: Homo sapiens, 72 h; TK-10, RAF WT, RAS WT, 3-day; read-out: gIC50
Method in brief: as §1

[15] = tested on: YAPC; conditions: Homo sapiens, 72 h, RAF WT, RAS WT, 3-day, read-out: gIC50
Method in brief: as §1

[16] = tested on: KHOS-240S; conditions: Homo sapiens, 72 h, RAF WT, RAS WT, 3-day, read-out: gIC50
Method in brief: as §1

[17] = tested on: SCC-12; conditions: Homo sapiens, SCC12, 72 h; SCC-12, RAF WT, RAS WT, 3-day; read-out: gIC50
Method in brief: as §1

[18] = tested on: Molt-4; conditions: Homo sapiens, 72 h; Molt-4, RAF WT, RAS WT, 3-day; read-out: gIC50
Method in brief: as §1

[19] = tested on: ZR-75-1; conditions: Homo sapiens, 72 h; ZR-75-1, RAF WT, RAS WT, 3-day; read-out: gIC50
Method in brief: as §1

[20] = tested on: CAL-27; conditions: Homo sapiens, 72 h; CAL-27, RAF WT, RAS WT, 3-day; read-out: gIC50
Method in brief: as §1

[21] = tested on: MDA-MB-175 VII; conditions: Homo sapiens, 72 h, RAF WT, RAS WT, 3-day, read-out: gIC50
Method in brief: as §1

[22] = tested on: SK-UT-1; conditions: Homo sapiens, 72 h; SK-UT-1, RAF WT, RAS WT, 3-day; read-out: gIC50
Method in brief: as §1

[23] = tested on: A2780; conditions: Homo sapiens, 72 h; A2780, RAF WT, RAS WT, 3-day; read-out: gIC50
Method in brief: as §1

[24] = tested on: HT-3; conditions: Homo sapiens, 72 h; HT-3, RAF WT, RAS WT, 3-day; read-out: gIC50
Method in brief: as §1

[25] = tested on: MDA-MB-468; conditions: Homo sapiens, 72 h; MDA-MB-468, RAF WT, RAS WT, 3-day; read-out: gIC50
Method in brief: as §1

[26] = tested on: RD; conditions: Homo sapiens, 72 h, RAF WT, RAS WT, 3-day, read-out: gIC50
Method in brief: as §1

[27] = tested on: HN5; conditions: Homo sapiens, 72 h; HN5, RAF WT, RAS WT, 3-day; read-out: gIC50
Method in brief: as §1

[28] = tested on: H4; conditions: Homo sapiens, 72 h; H4, RAF WT, RAS WT, 3-day; read-out: gIC50
Method in brief: as §1

[29] = tested on: HuT78; conditions: Homo sapiens, 72 h; HuT78, RAF WT, RAS WT, 3-day; read-out: gIC50
Method in brief: as §1

[30] = tested on: Colo 205; conditions: Homo sapiens, 72 h; Colo 205, BRAF(V600E), RAS WT, 3-day; read-out: gIC50
Method in brief: as §1

[31] = tested on: NCI-H1792; conditions: Homo sapiens, 72 h; NCI-H1792, RAF WT, RAS WT, 3-day; read-out: gIC50
Method in brief: as §1

[32] = tested on: SK-N-DZ(note); conditions: Homo sapiens, 72 h, RAF WT, RAS WT, 3-day, read-out: gIC50
Method in brief: as §1

[33] = tested on: Kato III; conditions: Homo sapiens, 72 h, RAF WT, RAS WT, 3-day, read-out: gIC50
Method in brief: as §1

[34] = tested on: MiaPaCa; conditions: Homo sapiens, MIA PaCa-2, 72 h, RAF WT, RAS WT, 3-day, read-out: gIC50
Method in brief: as §1

CC(C)(C)c1nc(-c2cccc(NS(=O)(=O)c3c(F)cccc3F)c2F)c(-c2ccnc(N)n2)s1 [dabrafenib]
IC50 [1]: 1 µM | IC50 [2]: 0.029 µM | IC50 [3]: > 10 µM | IC50 [4]: > 10 µM | IC50 [5]: 0.263 µM | IC50 [6]: > 10 µM | IC50 [7]: > 10 µM | IC50 [8]: > 10 µM | IC50 [9]: > 10 µM | IC50 [10]: 2 µM | IC50 [11]: > 10 µM | IC50 [12]: > 10 µM | IC50 [13]: > 10 µM | IC50 [14]: > 10 µM | IC50 [15]: > 10 µM | IC50 [16]: > 10 µM | IC50 [17]: > 10 µM | IC50 [18]: > 10 µM | IC50 [19]: > 10 µM | IC50 [20]: > 10 µM | IC50 [21]: > 10 µM | IC50 [22]: > 10 µM | IC50 [23]: > 10 µM | IC50 [24]: > 10 µM | IC50 [25]: > 10 µM | IC50 [26]: > 10 µM | IC50 [27]: > 10 µM | IC50 [28]: 0.619 µM | IC50 [29]: 0.052 µM | IC50 [30]: 0.007 µM | IC50 [31]: > 10 µM | IC50 [32]: > 10 µM | IC50 [33]: > 10 µM | IC50 [34]: > 10 µM
